Values of other authors in paper PMC3979036, “Autocrine IGF-I/insulin receptor axis compensates for inhibition of AKT in ER-positive breast cancer cells with resistance to estrogen deprivation” (Breast Cancer Research : BCR, 2013).

Biological target: InsR (insulin receptor) (Homo sapiens, UniProt P06213)
Test: autophosphorylation of human InsR in transfected CHO-T cells (AstraZeneca unpublished data)
Assay type: cell-based

Sequence of InsR (insulin receptor) (P06213 28-758): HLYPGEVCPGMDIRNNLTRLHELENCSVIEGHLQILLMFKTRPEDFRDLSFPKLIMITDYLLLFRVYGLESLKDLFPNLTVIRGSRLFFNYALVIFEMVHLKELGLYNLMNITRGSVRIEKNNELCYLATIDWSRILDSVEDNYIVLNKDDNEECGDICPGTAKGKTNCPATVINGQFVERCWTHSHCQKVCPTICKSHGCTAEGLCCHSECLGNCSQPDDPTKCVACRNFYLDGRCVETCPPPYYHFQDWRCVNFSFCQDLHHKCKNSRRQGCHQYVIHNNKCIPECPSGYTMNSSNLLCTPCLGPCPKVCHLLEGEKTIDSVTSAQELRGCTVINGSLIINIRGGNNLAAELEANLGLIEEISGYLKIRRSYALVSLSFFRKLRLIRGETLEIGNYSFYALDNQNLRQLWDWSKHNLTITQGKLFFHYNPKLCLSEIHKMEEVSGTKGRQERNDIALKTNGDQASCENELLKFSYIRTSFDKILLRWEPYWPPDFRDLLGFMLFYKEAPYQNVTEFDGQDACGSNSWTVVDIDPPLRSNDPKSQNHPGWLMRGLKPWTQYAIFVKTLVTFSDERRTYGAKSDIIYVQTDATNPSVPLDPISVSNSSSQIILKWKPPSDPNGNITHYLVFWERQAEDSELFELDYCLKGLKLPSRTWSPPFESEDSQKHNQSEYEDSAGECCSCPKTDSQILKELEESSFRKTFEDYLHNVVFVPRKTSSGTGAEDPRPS
Sequence of InsR (insulin receptor) (P06213 763-1382): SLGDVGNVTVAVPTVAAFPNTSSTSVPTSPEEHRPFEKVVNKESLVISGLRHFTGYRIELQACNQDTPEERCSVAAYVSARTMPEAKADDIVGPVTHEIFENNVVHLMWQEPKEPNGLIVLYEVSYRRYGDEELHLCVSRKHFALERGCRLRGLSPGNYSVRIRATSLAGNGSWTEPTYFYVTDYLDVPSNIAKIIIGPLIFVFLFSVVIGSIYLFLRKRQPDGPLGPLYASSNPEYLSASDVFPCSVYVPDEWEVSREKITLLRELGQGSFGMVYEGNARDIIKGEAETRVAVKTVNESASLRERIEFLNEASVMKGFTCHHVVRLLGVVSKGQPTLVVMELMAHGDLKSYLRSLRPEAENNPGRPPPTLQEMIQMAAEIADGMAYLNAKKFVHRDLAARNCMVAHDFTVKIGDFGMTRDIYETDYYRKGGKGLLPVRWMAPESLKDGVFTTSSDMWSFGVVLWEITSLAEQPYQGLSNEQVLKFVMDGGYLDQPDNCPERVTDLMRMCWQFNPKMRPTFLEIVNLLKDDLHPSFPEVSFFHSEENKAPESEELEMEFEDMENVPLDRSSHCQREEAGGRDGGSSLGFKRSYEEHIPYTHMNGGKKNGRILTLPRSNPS

IC50: 186 nM
Structure (SMILES): Cc1nn(C2CCN(C(=O)[C@@H](C)O)CC2)c(C)c1Nc1ncc(Cl)c(-c2cnn3ccccc23)n1 [AZD9362]
